Test results from US9115092B2, “Substituted quinazoline and pyrido-pyrimidine derivatives” (Asana Biosciences, LLC, priority 2010, dated 2015).

Tests used:
[1] = target: T1, mTOR kinase (Homo sapiens, UniProt P42345); test: mTOR kinase TR-FRET assay; assay type: biochemical; conditions: read-out: mTO R
T1 construct: purchased Millipore, USA
In short: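 TR-FRET read-out (340 nm excitation, 615/665 nm emission) of Thr389 phosphorylation of a ULight-labeled p70 S6K peptide (50 nM) by mTOR, 20 μM ATP, 60 min room temperature after 60 min compound preincubation. Buffer HEPES pH 7.5 with MnCl2, EGTA; IC50 by sigmoidal dose-response.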

[2] = test system: PC3 cells; test: XTT assay for cell viability, PC3 cells; assay type: cell-based, human
In short: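 PC3 cells seeded at 1000 cells/well, grown 24 h, then exposed to serial dilutions of compound for 96 h. Viability read by XTT dye at 37° C, absorbance 465 nm. EC50 from sigmoidal dose-response fit.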

[3] = target: T2, PI3Kα (wild-type), P110/P85α (Homo sapiens, UniProt P42336); test: PI3 Kinase TR-FRET assay, PI3Kα (wild-type); assay type: biochemical
T2 construct: made in house; host or cells: SF9 insect cells
In short: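 TR-FRET read-out of PIP3 formation via biotin-PIP3 displacement (665/615 nm ratio) gave IC50 curves. Enzyme: 5 ng wild-type P110/P85α from Sf9 cells, 60 min RT with compound and PIP2 (MgCl2 40 mM, DTT 5 mM), then 30 min RT kinase reaction at 10 μM ATP and 10 μM PIP2.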

[4] = test system: pS6RP(S235/236), PC3 cells; test: In-cell Western assay, pS6RP(S235/236) in PC3 cells; assay type: cell-based, human
Description: Cells from human prostate cancer cell line PC3 (American Type Culture Collection (ATCC), Manassas, Va. 20108 USA) were seeded at an optimal density of 22,000 cell/well in 96-well plates containing Ham's F12K medium (90 μL) and incubated overnight. The compound dilutions were carried out in 100% DMSO followed by a dilution in the medium. Test compounds were added in serial dilutions to the wells and incubated for 2 h. The cells were washed and fixed with 4% paraformaldehyde. After incubation at room temperature for 1 h in the dark, blocking was done for 2 h at room temperature. Primary antibodies for phosphorylated (p) AKT(5473) (phosphorylated at serine 473), pAKT(T308) (phosphorylated at threonine 308) and for pS6RP(S235/236) (phosphorylated at serine 235/236) (commercially available from Cell Signaling Technology®, whose protocol was followed for the in-cell western assay, were diluted to the required concentration and added to the corresponding wells followed by overnight incubation at 4° C. Eu-labeled rabbit (PE) (Perkin-Elmer USA catalog #AD0106) secondary antibody was added and incubated for 2 h at room temperature. Delfia® enhancement solution (cat #1244-105, Perkin Elmer USA) was subsequently added to the plate before taking the reading at 615 nm with excitation wavelength of 340 nm, after which 0.5 μg/mL of Hoechst® 33258 dye (Catalog #86140-5, Sigma) was added to the plate and fluorescence emission was read at 460 nm with 355 nm excitation, to evaluate the correction factor. IC50 values were calculated using a sigmoidal dose-response curve fit in GraphPad Prism® v5 software.

[5] = Homo sapiens, PC-3, cell viability
[6] = Homo sapiens, PC-3, In-cell Western

T2 sequence (P42336 whole entry): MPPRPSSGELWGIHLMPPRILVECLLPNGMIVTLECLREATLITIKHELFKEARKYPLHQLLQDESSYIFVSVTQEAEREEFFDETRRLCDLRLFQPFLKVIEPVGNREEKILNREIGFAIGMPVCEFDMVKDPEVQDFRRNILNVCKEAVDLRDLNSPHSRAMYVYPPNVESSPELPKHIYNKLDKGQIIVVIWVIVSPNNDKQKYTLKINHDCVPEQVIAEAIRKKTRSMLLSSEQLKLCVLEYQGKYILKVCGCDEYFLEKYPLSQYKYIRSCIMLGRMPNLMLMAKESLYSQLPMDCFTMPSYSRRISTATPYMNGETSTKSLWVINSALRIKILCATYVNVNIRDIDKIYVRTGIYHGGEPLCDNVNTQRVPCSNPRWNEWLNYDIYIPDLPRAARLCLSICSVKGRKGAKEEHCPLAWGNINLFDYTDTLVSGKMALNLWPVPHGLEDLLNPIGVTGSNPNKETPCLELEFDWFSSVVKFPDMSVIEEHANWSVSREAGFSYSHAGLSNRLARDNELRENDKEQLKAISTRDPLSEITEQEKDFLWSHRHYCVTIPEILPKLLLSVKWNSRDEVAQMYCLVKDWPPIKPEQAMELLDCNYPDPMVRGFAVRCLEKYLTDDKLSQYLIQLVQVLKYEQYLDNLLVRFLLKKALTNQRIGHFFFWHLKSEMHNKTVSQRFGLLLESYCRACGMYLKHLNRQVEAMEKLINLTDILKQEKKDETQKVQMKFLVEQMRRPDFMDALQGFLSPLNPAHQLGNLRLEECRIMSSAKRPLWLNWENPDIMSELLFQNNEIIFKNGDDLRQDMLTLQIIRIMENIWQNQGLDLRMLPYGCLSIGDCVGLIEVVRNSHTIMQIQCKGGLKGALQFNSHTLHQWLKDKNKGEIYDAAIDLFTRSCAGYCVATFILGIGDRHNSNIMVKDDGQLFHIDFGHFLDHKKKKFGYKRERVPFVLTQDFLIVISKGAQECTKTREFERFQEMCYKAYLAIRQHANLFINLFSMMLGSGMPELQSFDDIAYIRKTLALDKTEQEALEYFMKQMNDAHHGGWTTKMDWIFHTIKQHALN
T2 sequence (P27986 whole entry partner): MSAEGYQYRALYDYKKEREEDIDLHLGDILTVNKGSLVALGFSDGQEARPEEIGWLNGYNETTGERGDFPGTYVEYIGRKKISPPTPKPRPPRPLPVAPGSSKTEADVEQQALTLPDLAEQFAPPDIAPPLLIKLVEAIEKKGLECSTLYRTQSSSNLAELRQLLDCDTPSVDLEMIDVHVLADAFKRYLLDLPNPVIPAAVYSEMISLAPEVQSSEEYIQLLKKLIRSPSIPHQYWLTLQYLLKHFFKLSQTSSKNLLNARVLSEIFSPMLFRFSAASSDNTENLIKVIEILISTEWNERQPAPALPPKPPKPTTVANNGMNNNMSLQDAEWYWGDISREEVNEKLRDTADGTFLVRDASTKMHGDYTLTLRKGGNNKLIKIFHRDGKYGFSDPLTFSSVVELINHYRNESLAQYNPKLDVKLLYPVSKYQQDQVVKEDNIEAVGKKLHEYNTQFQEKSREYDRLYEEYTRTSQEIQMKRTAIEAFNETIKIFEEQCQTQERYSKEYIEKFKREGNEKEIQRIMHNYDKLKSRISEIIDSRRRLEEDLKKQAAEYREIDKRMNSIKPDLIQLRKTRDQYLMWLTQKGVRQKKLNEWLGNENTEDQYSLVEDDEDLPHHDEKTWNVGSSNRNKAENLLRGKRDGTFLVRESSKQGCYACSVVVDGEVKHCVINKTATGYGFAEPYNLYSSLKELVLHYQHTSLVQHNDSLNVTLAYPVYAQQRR

Row | Structure (SMILES) | IC50 [1] [nM] | IC50 [2, 5] [nM] | IC50 [3] [nM] | IC50 [4, 6] [nM] | IC50 ([2]; cell viability) [nM] | IC50 ([4]; In-cell Western) [nM]
1 | CN(C)C(=O)c1ccc(NC(=O)Nc2ccc(-c3nc(N4CCOCC4)c4ccc(-c5cnn(C)c5)cc4n3)cn2)cc1 [Example 55, N,N-dimethyl-4-(3-{5-[7-(1-methyl-1H-pyrazol-4-yl)-4-morpholin-4-yl-quinazolin-2-yl]-pyridin-2-yl}-ureido)-benzamide] | < 50 | 100 to 500 | < 50 | < 100 | – | –
2 | Cc1ccncc1-c1ccc2c(N3CCOCC3)nc(-c3ccc(NC(=O)Nc4ccc(C(=O)N(C)C)cc4)cc3)nc2c1 [Example 62, N,N-dimethyl-4-(3-{4-[7-(4-methyl-pyridin-3-yl)-4-morpholin-4-yl-quinazolin-2-yl]-phenyl}-ureido)-benzamide] | < 50 | 100 to 500 | < 50 | < 100 | – | –
3 | Cc1ccc(-c2ccc3c(N4CCOCC4)nc(-c4ccc(NC(=O)Nc5ccc(C(=O)N(C)CCN(C)C)cc5)cc4)nc3c2)o1 [Example 63, N-(2-dimethylamino-ethyl)-N-methyl-4-(3-{4-[7-(5-methyl-furan-2-yl)-4-morpholin-4-yl-quinazolin-2-yl]-phenyl}-ureido)-benzamide] | < 50 | 100 to 500 | < 50 | 100 to 500 | – | –
4 | CN(C)C(=O)c1ccc(NC(=O)Nc2ccc(-c3nc(N4CCOCC4)c4ccc(-c5ccncc5F)cc4n3)cc2)cc1 [Example 65, 4-(3-{4-[7-(3-fluoro-pyridin-4-yl)-4-morpholin-4-yl-quinazolin-2-yl]-phenyl}-ureido)-N,N-dimethyl-benzamide] | < 50 | 100 to 500 | < 50 | < 100 | – | –
5 | CC(=O)Nc1cncc(-c2ccc3c(N4CCOCC4)nc(-c4ccc(NC(=O)Nc5ccc(C(=O)N(C)C)cc5)cc4)nc3c2)c1 [Example 66, 4-(3-{4-[7-(5-acetylamino-pyridin-3-yl)-4-morpholin-4-yl-quinazolin-2-yl]-phenyl}-ureido)-N,N-dimethyl-benzamide] | < 50 | 100 to 500 | < 50 | < 100 | – | –
6 | CN1CCN(C(=O)c2ccc(NC(=O)Nc3ccc(-c4nc(N5CCOCC5)c5ccc(-c6ccncc6)cc5n4)cc3)cc2)CC1 [Example 69, 1-[4-(4-methyl-piperazine-1-carbonyl)-phenyl]-3-[4-(4-morpholin-4-yl-7-pyridin-4-yl-quinazolin-2-yl)-phenyl]-urea] | < 50 | 100 to 500 | < 50 | < 100 | – | –
7 | CN(C)CCN(C)C(=O)c1ccc(NC(=O)Nc2ccc(-c3nc(N4CCOCC4)c4ccc(-c5ccncc5)cc4n3)cc2)cc1 [Example 72, N-(2-dimethylamino-ethyl)-N-methyl-4-{3-[4-(4-morpholin-4-yl-7-pyridin-4-yl-quinazolin-2-yl)-phenyl]-ureido}-benzamide] | < 50 | 100 to 500 | < 50 | < 100 | – | –
8 | CN(C)C(=O)c1ccc(NC(=O)Nc2ccc(-c3nc(N4CCOCC4)c4ccc(-c5ccco5)cc4n3)cc2)cc1 [Example 80, N,N-dimethyl-4-(3-{4-[7-(furan-2-yl)-4-morpholin-4-yl-quinazolin-2-yl]-phenyl}-ureido)-benzamide] | < 50 | – | < 50 | – | < 100 | < 100
9 | CN(C)C1CCN(C(=O)c2ccc(NC(=O)Nc3ccc(-c4nc(N5CCOCC5)c5ccc(-c6cccnc6F)cc5n4)cn3)cc2)CC1 [Example 81, 1-(4-(4-(dimethylamino)piperidine-1-carbonyl)phenyl)-3-(5-(7-(2-fluoropyridin-3-yl)-4-morpholine-quinazolin-2-yl)pyridin-2-yl)urea] | < 50 | 501 to 5000 | < 50 | < 100 | – | –
10 | CN(C)CCn1cc(-c2ccc3c(N4CCOCC4)nc(-c4ccc(NC(=O)Nc5ccc(C(=O)N(C)C)cc5)cc4)nc3c2)cn1 [Example 83, 4-(3-(4-(7-(1-(2-(dimethylamino)ethyl)-1H-pyrazol-4-yl)-4-morpholino-quinazolin-2-yl)phenyl)ureido)-N,N-dimethyl-benzamide] | < 50 | 201 to 10000 | 50 to 200 | 201 to 10000 | – | –
11 | CN(C)C(=O)c1ccc(NC(=O)Nc2ccc(-c3nc(N4CCOCC4)c4ccc(-c5cncnc5)cc4n3)cc2F)cc1 [Example 84, 4-(3-(2-fluoro-4-(4-morpholino-7-(pyrimidin-5-yl)quinazolin-2-yl)phenyl)ureido)-N,N-dimethyl-benzamide] | < 50 | 201 to 10000 | 50 to 200 | 201 to 10000 | – | –
12 | CN(C)C(=O)c1ccc(NC(=O)Nc2ccc(-c3nc(N4CCOCC4)c4ncc(-c5cnn(C)c5)cc4n3)cn2)cc1 [Example 85, N,N-dimethyl-4-(3-(5-(7-(1-methyl-1H-pyrazol-4-yl)-4-morpholino-pyrido[3,2-d]pyrimidin-2-yl)pyridin-2-yl)ureido)-benzamide] | < 50 | 201 to 10000 | < 50 | 201 to 10000 | – | –
13 | CN(C)C(=O)c1ccc(NC(=O)Nc2ccc(-c3nc(N4CCOCC4)c4ccc(-c5ccnnc5)cc4n3)cc2)cc1 [Example 86, N,N-dimethyl-4-(3-(4-(4-morpholino-7-(pyridazin-4-yl)quinazolin-2-yl)phenyl)ureido)-benzamide] | < 50 | 201 to 10000 | 50 to 200 | 201 to 10000 | – | –
14 | Cc1ccc(-c2cc3nc(-c4ccc(NC(=O)Nc5ccc(C(=O)N(C)C)cc5)cc4)nc(N4CCOCC4)c3cc2F)o1 [Example 87, 4-(3-(4-(6-fluoro-7-(5-methylfuran-2-yl)-4-morpholino-quinazolin-2-yl)phenyl)ureido)-N,N-dimethyl-benzamide] | < 50 | < 100 | 50 to 200 | < 100 | – | –
15 | CNC(=O)c1ccc(NC(=O)Nc2ccc(-c3nc(N4CCOCC4)c4ccc(-c5cncnc5)cc4n3)cc2)cc1 [Example 88, N-methyl-4-(3-(4-(4-morpholino-7-(pyrimidin-5-yl)quinazolin-2-yl)phenyl)ureido)-benzamide] | < 50 | 201 to 10000 | 50 to 200 | < 100 | – | –
16 | CNC(=O)c1ccc(NC(=O)Nc2ccc(-c3nc(N4CCOCC4)c4ncc(-c5cnn(C)c5)cc4n3)cc2)cc1 [Example 89, N-methyl-4-(3-(4-(7-(1-methyl-1H-pyrazol-4-yl)-4-morpholino-pyrido[3,2-d]pyrimidin-2-yl)phenyl)ureido)-benzamide] | < 50 | 201 to 10000 | < 50 | 201 to 10000 | – | –
17 | CN(C)C(=O)c1ccc(NC(=O)Nc2ccc(-c3nc(N4CCOCC4)c4ccc(-c5cccnc5F)cc4n3)cc2F)cc1 [Example 91, 4-(3-(2-fluoro-4-(7-(2-fluoropyridin-3-yl)-4-morpholino-quinazolin-2-yl)phenyl)ureido)-N,N-dimethyl-benzamide] | < 50 | 201 to 10000 | < 50 | 201 to 10000 | – | –
18 | CN(C)C(=O)c1ccc(NC(=O)Nc2ccc(-c3nc(N4CCOCC4)c4ncc(-c5cnc(N)nc5)cc4n3)cc2)cc1 [Example 92, 4-(3-(4-(7-(2-aminopyrimidin-5-yl)-4-morpholino-pyrido[3,2-d]pyrimidin-2-yl)phenyl)ureido)-N,N-dimethyl-benzamide] | < 50 | 201 to 10000 | < 50 | 201 to 10000 | – | –
19 | Cc1ccncc1-c1cnc2c(N3CCOCC3)nc(-c3ccc(NC(=O)Nc4ccc(C(=O)N(C)C)cc4)cc3)nc2c1 [Example 93, N,N-dimethyl-4-(3-(4-(7-(4-methylpyridin-3-yl)-4-morpholino-pyrido[3,2-d]pyrimidin-2-yl)phenyl)ureido)-benzamide] | < 50 | 201 to 10000 | < 50 | 201 to 10000 | – | –
20 | COc1ncc(-c2cnc3c(N4CCOCC4)nc(-c4ccc(NC(=O)Nc5ccc(C(=O)N(C)C)cc5)cc4)nc3c2)cn1 [Example 94, 4-(3-(4-(7-(2-methoxypyrimidin-5-yl)-4-morpholino-pyrido[3,2-d]pyrimidin-2-yl)phenyl)ureido)-N,N-dimethyl-benzamide] | < 50 | 201 to 10000 | < 50 | 201 to 10000 | – | –
